The target of experiment [1] is T1, human Orexin-1 receptor (hOX1R) (Homo sapiens, UniProt O43613).
T1 construct: host or cells: CHO-K1
T1 sequence (O43613 1-425): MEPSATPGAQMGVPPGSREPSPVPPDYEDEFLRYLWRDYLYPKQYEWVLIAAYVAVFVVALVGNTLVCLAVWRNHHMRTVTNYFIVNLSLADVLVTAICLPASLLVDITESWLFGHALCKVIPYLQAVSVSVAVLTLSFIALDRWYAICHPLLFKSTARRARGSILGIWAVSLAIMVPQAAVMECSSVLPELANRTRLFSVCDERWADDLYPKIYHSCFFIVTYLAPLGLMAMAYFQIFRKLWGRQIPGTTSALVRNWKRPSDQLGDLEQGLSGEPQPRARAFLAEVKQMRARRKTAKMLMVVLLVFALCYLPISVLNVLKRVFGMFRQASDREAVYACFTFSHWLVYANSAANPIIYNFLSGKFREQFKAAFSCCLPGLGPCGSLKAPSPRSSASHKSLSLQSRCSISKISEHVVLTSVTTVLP
The experiment in a line: Ca2+-flux assay for IC50 determination in CHO-hOX1R cells (Orexin-A stimulated). As to conditions: 5nM Orexin-A agonist, fluo-4 fluorescence, compounds 1.28nM to 20µM, triplicates, read-out: 0X1. In kind it is cell-based. The source says:
A CHO-K1 cell line stably expressing human Orexin-1 receptor (hOX1R, coding sequence of AF041243) was obtained from Euroscreen/PerkinElmer (CHO-hOX1R, ES-330-C). A plasmid containing the human Orexin-2 receptor (hOX2R) cDNA was purchased from RZPD (RZPDo834A1045-pT-REx-DEST30). The human Orexin-2 receptor coding region was amplified in a gradient PCR reaction using hOX2Rfor (5' ccaggatccgc […]) and hOX2Rrev (5' […]) primers containing restriction sites for the restriction enzymes BamHI and NotI. The PCR reaction was performed with the LightCycler system from Roche Applied Science. The amplified DNA fragment was digested with restriction enzymes BamHI and Notl (Fermentas) and subsequently cloned into the BamHI/NotI sites of the pFB-Neo vector (Stratagene) thereby generating plasmid pFB-Neo-hOX2R. For a stably expressing CHO-hOX2R cell line viral transduction of CHO-K1 cells were performed by using the pFB-Neo-hOX2R plasmid and the pVPack vector system from Stratagene according to the manufacturer's manual. Cells expressing the hOX2 receptor were selected using G418 at a final concentration of 500µg/ml and single cell clones were produced by limited dilution cloning.
CHO-hOX1R cells were grown in HAM F12 Nutrient Mixture (Sigma, N6658), 10%Fetal Bovine Serum (Sigma, F9665), 1% Penstrep (Sigma, p4333) and […] G418 (Sigma, A1720). CHO-hOX2R cells were grown in DMEM F12 medium (Sigma, D8437) supplemented with 10%Fetal Bovine Serum (Sigma, F9665), 1% Penstrep (Sigma, p4333) and […] G418 (Sigma, A1720). Cells were maintained under 5% CO2 atmosphere at 37°C. Cells were passaged every 2-3 days.
CHO-hOX1R and CHO-hOX2R cells were seeded at a density of 7500 cells per well into black, 384 well Costar Cellbind plates and cultured overnight in the appropriate cell culture medium as described above without G418 selection. The next day the medium was removed and the cells were incubated for 1.5hrs at 37°C in fluo-4, AM dye solution [2µM fluo-4,AM (Molecular Probes; F-14202, Lot#28C1-12) in 5mM probenecid (Sigma, P-8761, Lot# 121K1662), 0.1% Bovine Serum Albumin (BSA, MERCK, 1.12018.0100), 1xHBSS (Invitrogen, 14025-050), 20mM HEPES (Invitrogen,. 15630-056)]. […] All compound concentrations were measured in triplicates. Subsequently, agonist solution (5nM Orexin-A, TOCRIS, 1455) in 5mM probenecid, 0.1% BSA, 1xHBSS, 20mM HEPES was added during incubation of the plate at 37°C in the fluorescence plate reader (FlexStation, Molecular Devices). Fluorescence was measured for 0-60 seconds per well at an excitation of 485nm and emission of 538nm. For EC50 determination of Orexin-A the cells were incubated as described above for 20min at 37°C in probenecid buffer (5mM probenecid, 0.1% BSA, 1xHBSS, 20mM HEPES, 1%DMSO) without compound solution. Agonist injection occurred in the fluorescence plate reader (FlexStation, Molecular Devices) at different concentrations ranging from 0-100nM in 5mM probenecid, 0.1% BSA, 1xHBSS, 20mM HEPES. Detection of fluorescence was as described above.

Another experiment deals with T2, OX1 (Mus musculus, UniProt P58307).
T2 sequence (P58307 1-416): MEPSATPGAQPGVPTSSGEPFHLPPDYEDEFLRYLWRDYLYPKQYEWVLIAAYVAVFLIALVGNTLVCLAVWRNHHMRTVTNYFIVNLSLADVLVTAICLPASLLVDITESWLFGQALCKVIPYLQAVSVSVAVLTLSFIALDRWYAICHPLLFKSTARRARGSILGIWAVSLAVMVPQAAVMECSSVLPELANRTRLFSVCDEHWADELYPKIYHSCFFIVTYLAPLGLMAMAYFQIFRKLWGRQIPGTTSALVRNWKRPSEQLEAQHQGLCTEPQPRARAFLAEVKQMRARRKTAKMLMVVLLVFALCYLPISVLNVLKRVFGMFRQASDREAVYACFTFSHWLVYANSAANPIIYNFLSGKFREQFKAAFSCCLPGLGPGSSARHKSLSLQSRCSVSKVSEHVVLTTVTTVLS
As to conditions: pretreatment before naloxone-precipitated withdrawal; Sharf et al, Biol Psychiatry, 2008; cited from earlier work.

This is an account of results in patent EP2161266A1, “Benzofuran derivatives as orexin receptor antagonists” (EVOTEC Neurosciences GmbH, priority 2008, dated 2010).

Where only a bound is given, the exact number is not on record here.

Consider `CCN(CC)c1ccc(NC(=O)c2oc3ccccc3c2C)cc1` [Example 2, N-[4-(Diethylamino)phenyl]-3-methyl-2-benzofurancarboxamide], for which the IC50 in experiment [1] is below 0.3 µM.

For `CCN(CC)c1ccc(NC(=O)c2oc3ccccc3c2COC)cc1` [Example 4, N-[4-(Diethylamino)phenyl]-3-(methoxymethyl)-2-benzofurancarboxamide], the IC50 in experiment [1] is below 1 µM.

`CCN(CC)c1ccc(NC(=O)c2oc3ccccc3c2NC(C)=O)cc1` [Example 15, N-[4-(Diethylamino)phenyl]-3-(acetylamino)-2-benzofurancarboxamide]: the IC50 in experiment [1] is below 3 µM.

Turning to `CCc1c(C(=O)Nc2ccc(N(CC)CC)cc2)oc2ccccc12` [Example 5, N-[4-(Diethylamino)phenyl]-3-ethyl-2-benzofurancarboxamide], the IC50 in experiment [1] was below 0.3 µM.

Regarding `Cc1c(C(=O)Nc2ccc3c(c2)OCCO3)oc2ccccc12` [Example 1, N-(2,3-Dihydro-1,4-benzodioxin-6-yl)-3-methyl-2-benzofurancarboxamide], the IC50 in experiment [1] is below 3 µM.

On to `Cc1nc2ccc(NC(=O)Nc3ccnc4cccnc34)cc2o1` [SB-334867], for which the withdrawal symptoms entry at OX1 is recorded as “striking reduction in several withdrawal symptoms”.

`Cc1c(C(=O)Nc2ccc3c(ccn3C)c2)oc2ccccc12` [Example 10, N-(1-Methyl-1H-indol-5-yl)-3-methyl-2-benzofurancarboxamide]: in experiment [1], the IC50 is below 1 µM.

As to `Cc1nc2ccc(NC(=O)c3oc4ccccc4c3C)cc2s1` [Example 14, N-(2-Methyl-6-benzothiazolyl)-3-methyl-2-benzofurancarboxamide], in experiment [1], the IC50 was below 1 µM.

For the compound `CCN(CC)c1ccc(NC(=O)c2cc3ccccc3o2)cc1` [Example 13, N-[4-(Diethylamino)phenyl]-2-benzofurancarboxamide], the IC50 in experiment [1] is below 1 µM.

In the case of `CCOc1ccc(NC(=O)c2oc3ccccc3c2C)cc1` [Example 9, N-(4-Ethoxyphenyl)-3-methyl-2-benzofurancarboxamide], in experiment [1], the IC50 was below 3 µM.

On to `CCc1c(C(=O)Nc2ccc3nc(C)oc3c2)oc2ccccc12` [Example 6, N-(2-Methyl-6-benzoxazolyl)-3-ethyl-2-benzofurancarboxamide], for which the IC50 in experiment [1] was below 0.3 µM.

Take “N-(4-Thioanisolyl)-3-methyl-2-benzofurancarboxamide [Example 11]”: in experiment [1], the IC50 was below 1 µM.

As to `Cc1nc2ccc(NC(=O)c3oc4ccccc4c3C)cc2o1` [Example 3, N-(2-Methyl-6-benzoxazolyl)-3-methyl-2-benzofurancarboxamide], the IC50 in experiment [1] is below 0.3 µM.

In the case of `CCN(CC)c1ccc(NC(=O)c2oc3ccccc3c2OC)cc1` [Example 12, N-[4-(Diethylamino)phenyl]-3-methoxy-2-benzofurancarboxamide], the IC50 in experiment [1] was below 0.3 µM.

In the case of `Cc1c(C(=O)Nc2ccc3c(c2)OCCCO3)oc2ccccc12` [Example 8, N-(3,4-dihydro-2H-1,5-benzodioxepin-7-yl)-3-methyl-2-benzofurancarboxamide], the IC50 in experiment [1] is below 3 µM.

With `COc1ccc(NC(=O)c2oc3ccccc3c2C)cc1Cl` [Example 7, N-(3-Chloro-4-methoxyphenyl)-3-methyl-2-benzofurancarboxamide], in experiment [1], the IC50 is below 3 µM.
